Test results reported in patent US8158643B2, “Substituted diaza-spiro-pyridinone derivatives for use in MCH-1 mediated diseases” (Janssen Pharmaceutica N.V., priority 2006, dated 2012).
One block for each molecule: values may come before it.

Experiments:
human MCH-1 receptor = molecular target: T1, human MCH-1 receptor (Homo sapiens, UniProt Q99705); experiment: Ca2+ mobilization experiment for the MCH-1 receptor (FLIPR), inhibition of MCH-induced Ca2+ response; type: cell-based; details: CHO cells stably expressing human MCH-1 receptor, submaximal MCH concentration, read-out: MCH-1 pIC50 (converted)
T1 construct: expressed in transfected cells
Procedure: The interaction of the compounds of Formula (I) with MCH-1 receptors was assessed in in vitro transient calcium (Ca^2+) mobilization assays in the fluorimetric imaging plate reader (FLIPR) format (Sullivan et al. 1999, Methods Mol Biol 114:125-133). In general, the natural agonist (MCH) is incubated with cells expressing the MCH-1 receptor, which elicits a concentration-dependent transient mobilization of Ca^2+ from internal stores. The interaction of the test compounds with the receptor is assessed in competition experiments. Various concentrations of the test compound are added to the incubation mixture containing the receptor-expressing cells and a submaximal concentration of MCH. The test compound in proportion to its antagonist potency and its concentration inhibits MCH-induced Ca^2+ mobilization.
Cell culture and membrane preparation. Chinese Hamster ovary cells (CHO) stably expressing the human MCH-1 receptor are grown in a 1:1 mixture of Dulbecco's Modified Eagles Medium (DMEM) and HAM's F12 medium including Glutamax™ (Invitrogen), supplemented with 10% heat-inactivated fetal bovine serum and 400 μg/ml geneticin.
Ca^2+ mobilization experiment for the MCH-1 receptor. Twenty-four hours before the experiment, MCH-1 receptor-expressing CHO cells are seeded in 20 μl (5,000 cells per well) into 384-well black wall, clear bottom microtiter plates (Costar). On the day of the experiment, 20 μl per well calcium assay kit containing 10 mM probenicide (Molecular Devices) is added. Cells are loaded for 90 min at 37° C. and 5% CO2 in a cell culture incubator. After loading, 20 μl of serial dilutions of the test compound are added and cells are further incubated for 20 min at room temperature in the dark. After 20 min, 20 μl of a submaximal MCH concentration is added and changes in intracellular calcium are recorded directly in a FLIPR III apparatus (Molecular devices).
Data analysis and results. Data from assays in the presence of compound were calculated as a percentage of total Ca^2+-responses measured in the absence of test compound. Inhibition curves, plotting percent of total Ca^2+-responses versus the log value of the concentration of the test compound, were automatically generated, and sigmoidal inhibition curves were fitted using non-linear regression. The pIC50 values of test compounds were derived from individual curves.

HERG potassium channel = molecular target: T2, HERG potassium channel (Homo sapiens, UniProt Q12809); experiment: hERG-mediated K+ tail current, automated whole-cell patch clamp (PatchXpress 7000A) in HEK293 cells stably transfected with HERG; type: cell-based; details: measured after 5 minutes of drug application
T2 construct: expressed in transfected cells
Description: To determine the extent of block the residual current was compared with vehicle pre-treatment.

T2 sequence (Q12809 whole entry): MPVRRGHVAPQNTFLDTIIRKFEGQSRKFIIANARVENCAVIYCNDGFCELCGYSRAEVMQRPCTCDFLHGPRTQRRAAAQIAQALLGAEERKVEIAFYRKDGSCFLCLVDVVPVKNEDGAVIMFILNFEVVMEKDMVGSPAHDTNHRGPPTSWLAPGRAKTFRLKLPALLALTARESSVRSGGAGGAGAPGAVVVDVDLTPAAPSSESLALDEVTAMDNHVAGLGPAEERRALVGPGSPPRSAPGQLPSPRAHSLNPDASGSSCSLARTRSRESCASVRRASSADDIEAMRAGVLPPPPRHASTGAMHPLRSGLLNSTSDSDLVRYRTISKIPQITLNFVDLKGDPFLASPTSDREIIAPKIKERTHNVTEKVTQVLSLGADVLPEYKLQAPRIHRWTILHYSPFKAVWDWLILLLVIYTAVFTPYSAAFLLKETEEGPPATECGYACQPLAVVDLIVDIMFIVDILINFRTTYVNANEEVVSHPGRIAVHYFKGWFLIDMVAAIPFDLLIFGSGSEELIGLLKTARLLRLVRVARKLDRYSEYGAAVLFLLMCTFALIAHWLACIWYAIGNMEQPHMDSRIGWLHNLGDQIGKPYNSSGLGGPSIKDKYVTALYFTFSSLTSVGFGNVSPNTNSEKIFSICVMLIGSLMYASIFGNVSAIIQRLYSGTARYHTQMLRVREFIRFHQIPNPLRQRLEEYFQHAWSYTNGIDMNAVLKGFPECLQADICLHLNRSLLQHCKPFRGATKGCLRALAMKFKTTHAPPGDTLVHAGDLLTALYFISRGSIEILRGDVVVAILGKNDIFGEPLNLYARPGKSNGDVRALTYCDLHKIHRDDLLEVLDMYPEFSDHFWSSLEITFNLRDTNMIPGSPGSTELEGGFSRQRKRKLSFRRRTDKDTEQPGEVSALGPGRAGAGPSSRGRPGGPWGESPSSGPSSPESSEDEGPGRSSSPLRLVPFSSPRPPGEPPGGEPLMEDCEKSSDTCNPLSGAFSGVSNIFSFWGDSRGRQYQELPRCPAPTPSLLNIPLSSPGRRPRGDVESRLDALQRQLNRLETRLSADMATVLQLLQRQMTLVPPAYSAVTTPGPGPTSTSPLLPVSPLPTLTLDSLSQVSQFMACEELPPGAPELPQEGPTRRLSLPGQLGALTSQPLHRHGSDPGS
T1 sequence (Q99705 whole entry): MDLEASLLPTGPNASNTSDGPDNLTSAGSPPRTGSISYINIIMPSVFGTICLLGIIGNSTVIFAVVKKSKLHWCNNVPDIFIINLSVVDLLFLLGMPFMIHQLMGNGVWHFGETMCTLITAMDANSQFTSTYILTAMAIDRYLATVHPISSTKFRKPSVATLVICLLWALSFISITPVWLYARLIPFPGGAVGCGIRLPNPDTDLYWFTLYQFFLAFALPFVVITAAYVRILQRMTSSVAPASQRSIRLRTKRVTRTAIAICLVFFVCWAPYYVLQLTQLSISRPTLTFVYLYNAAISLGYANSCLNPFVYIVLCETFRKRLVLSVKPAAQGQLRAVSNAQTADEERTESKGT

SMILES: O=c1cc(OCc2ccccc2)ccn1-c1ccc(N2CCC3(CCNCC3)C2)cc1 [Compound 1-7]
- IC50 (human MCH-1 receptor): 63.1 nM
- hERG-reduction (%) at 3 μM (HERG potassium channel): −1.8%
- melting point: 236.3 °C

SMILES: O=c1cc(OCc2ccccc2)ccn1-c1ccc(N2CCC3(CC2)CNC3)cc1 [Compound 1-1]
- IC50 (human MCH-1 receptor): 79.4 nM

SMILES: O=c1cc(OCc2ccccc2)ccn1-c1ccc(N2CCC3(CCCNC3)C2)cc1 (stereo not drawn) [Compound 1-6]
- IC50 (human MCH-1 receptor): 25.1 nM

SMILES: O=c1cc(OCc2ccccc2)ccn1-c1ccc(N2CCC3(CC2)CNCCO3)cc1 [Compound 1-3]
- IC50 (human MCH-1 receptor): 126 nM

SMILES: O=c1cc(OCc2ccccc2)ccn1-c1ccc(N2CC3(CCN(C4CC4)CC3)C2)cc1 [Compound 1-9]
- IC50 (human MCH-1 receptor): 100 nM
- melting point: 276.5 °C

SMILES: O=c1cc(OCc2ccccc2)ccn1-c1ccc(N2CC3(CCNCC3)C2)cc1 [Compound 1-12]
- IC50 (human MCH-1 receptor): 25.1 nM
- hERG-reduction (%) at 3 μM (HERG potassium channel): 0.7%
- melting point: 231 °C

SMILES: O=c1cc(OCc2ccccc2)ccn1-c1ccc(N2CCC3(CCCNC3)CC2)cc1 [Compound 1-2]
- IC50 (human MCH-1 receptor): 50.1 nM
- melting point: 141.5 °C

SMILES: O=C1N(c2ccc(-n3ccc(OCc4ccccc4)cc3=O)cc2)CC12CCNCC2 [Compound 1-11]
- IC50 (human MCH-1 receptor): 50.1 nM

SMILES: O=C1CC2(CCNCC2)CN1c1ccc(-n2ccc(OCc3ccccc3)cc2=O)cc1 [Compound 1-10]
- IC50 (human MCH-1 receptor): 79.4 nM

SMILES: O=c1cc(OCc2ccccc2)ccn1-c1ccc(N2CC3(CCNCC3)C2)cc1 [Compound 1-5]
- IC50 (human MCH-1 receptor): 31.6 nM
- melting point: 203.2 °C

SMILES: CN1CCC2(CC1)CCN(c1ccc(-n3ccc(OCc4ccccc4)cc3=O)cc1)C2 [Compound 1-14]
- IC50 (human MCH-1 receptor): 31.6 nM

SMILES: CCN1CCC2(CC1)CN(c1ccc(-n3ccc(OCc4ccccc4)cc3=O)cc1)C2 [Compound 1-8]
- IC50 (human MCH-1 receptor): 63.1 nM

SMILES: O=c1cc(OCc2ccccc2)ccn1-c1ccc(N2CCCC3(CCNC3)C2)cc1 (stereo not drawn) [Compound 1-4]
- IC50 (human MCH-1 receptor): 31.6 nM

More lines, main results first:

- IC50 (human MCH-1 receptor): 25.1 nM
- melting point: 164.6 °C
SMILES: Cc1cc(-n2ccc(OCc3ccccc3)cc2=O)ccc1N1CC2(CCNCC2)C1 [Compound 2-1]
- hERG-reduction (%) at 3 μM (HERG potassium channel): 15.6%

- IC50 (human MCH-1 receptor): 39.8 nM
SMILES: COc1cc(-n2ccc(OCc3ccccc3)cc2=O)ccc1N1CC2(CCNCC2)C1 [Compound 2-2]

- IC50 (human MCH-1 receptor): 25.1 nM
SMILES: O=c1cc(OCc2ccccc2)ccn1-c1ccc(N2CC3(CCNCC3)C2)c(Cl)c1 [Compound 2-3]

- IC50 (human MCH-1 receptor): 501 nM
- melting point: 292.7 °C
SMILES: O=c1cc(COc2ccccc2)ccn1-c1ccc(N2CC3(CCNCC3)C2)cc1 [Compound 3-3]

- IC50 (human MCH-1 receptor): 63.1 nM
SMILES: O=c1cc(/C=C/c2ccccc2)ccn1-c1ccc(N2CC3(CCNCC3)C2)cc1 [Compound 3-1]

- IC50 (human MCH-1 receptor): 31.6 nM
SMILES: CN1CCC2(CC1)CN(c1ccc(-n3ccc(OCc4ccccc4)cc3=O)cc1Cl)C2 [Compound 2-4]

- IC50 (human MCH-1 receptor): 39.8 nM
SMILES: O=c1cc(OCc2ccc(F)cc2)ccn1-c1ccc(N2CC3(CCNCC3)C2)cc1 [Compound 3-2]
